Assay results reported in publication PMC8626775, “Anti-schistosomal activities of quinoxaline-containing compounds: From hit identification to lead optimisation” (European Journal of Medicinal Chemistry, 2021).
Values joined by “and” are separate entries in the source; they are usually repeats but may differ in a detail not shown here. Equal entries are not always repeated. Where two headings read alike, the source gives them in different places.

Key:
[1] = system: HepG2 cells; assay: HepG2 MTT cytotoxicity assay; settings: for Toxicity on HepG2 in words: 24 h; for Selectivity Index (SI) Adult worms: HepG2 CC50 versus adult worm EC50; for Selectivity Index (SI) Somula: HepG2 CC50 versus schistosomula EC50
Method: Initially the cells were handled under sterile conditions and grown at 37 °C in a humidified atmosphere containing 5% CO2. Cytotoxicity was evaluated by way of a 3-(4, 5- dimethylthiazol-2-yl)-2,5-diphenyl tetrazolium bromide (MTT) assay as previously described. The cells were counted in a dual chamber counting slide using the BIORAD TC-10 Automated cell counter, seeded in a 96-well plate (Fisher Scientific, Loughborough, UK) at a density of 2 × 10^4 cells/well and incubated in an atmosphere of 5% CO2 at 37 °C. […] The absorbance readings (at 570 nm) of the soluble formazan crystals were recorded using PolarStar Omega plate reader (BMG-Labtech). […] The latter was used to calculate the selectivity index (SI) of the compounds presented herein.

[2] = system: S. mansoni schistosomula; assay: S. mansoni schistosomula high-throughput phenotype and motility screen (Roboworm), 72 h; type: cell-based, Schistosoma mansoni; settings: Schistosoma mansoni
Method: Cercariae derived from the NMRI ([…]) Puerto Rican strain (PR-1) of S. mansoni were shed from two Biomphalaria glabrata strains, the NMRI albino and pigmented outbred strains, under intensified lighting conditions (1 h of incubation at 26 °C). Cercariae were then mechanically transformed into schistosomula as previously described.
High-throughput screening (HTS) of selected compounds was conducted as previously described. Briefly, newly transformed schistosomula were distributed in a 384-well tissue culture plate (PerkinElmer, cat 6007460, seeding density of 120 parasites/well). Each compound (at a single concentration or two-fold titrations) was transferred into individual wells alongside the positive and negative controls (AUR at 10 μM final concentration in 0.625% DMSO and 0.625% DMSO, respectively). Schistosomula/compound co-cultures were then incubated at 37 °C for 72 h in a humidified atmosphere containing 5% CO2. Following the co-culture period, automatic assessment of compound-induced schistosomula motility and phenotypic changes were conducted with the high-content imaging platform Roboworm using the image analysis model previously described by Paveley et al..

[3] = system: S. mansoni adult worms; assay: S. mansoni adult worm motility screen (WormassayGP2), 72 h; type: cell-based, Schistosoma mansoni; settings: Schistosoma mansoni
Text: Mice (Mus musculus HsdOLa:TO - Tuck Ordinary; Envigo, UK) were used for the mammalian-specific propagation of the S. mansoni life cycle. Experimental animals were infected with 4000 or 180 S. mansoni cercariae/mouse and perfused three- or seven-weeks post-infection to obtain S. mansoni juvenile or adult worms, respectively. Preparation steps following perfusion have been described previously. Briefly, the parasite material was washed three times with pre-warmed adult worm media (DMEM (Gibco, Paisley, UK) supplemented with 10% (v/v) Fetal Calf Serum (FCS, Gibco, Paisley, UK), 1% (v/v) L-glutamine (Gibco, Paisley, UK) and an antibiotic mixture (150 Units/ml penicillin and 150 μg/ml streptomycin; Gibco, UK)) to remove residual host contamination and incubated in a humidified environment containing 5% CO2 at 37 °C for at least 1 h.
For the evaluation of anti-schistosomal activity on the adult stage of the parasite, 7-wk old worms were transferred into 48 well tissue culture plates (1–3 worm pairs/well, in duplicate). […] DMSO (0.5%) and praziquantel (10 μM in 0.5% DMSO) were also included as negative and positive control treatments. Treated adult worms were incubated for 72 h in a humidified environment containing 5% CO2 at 37 °C. Parasite motility after compound treatment was assessed by a digital image processing-based system (WormassayGP2), modified after Wormassay. Following compound-parasite co-incubation, eggs were collected, fixed in formalin (10% v/v formaldehyde) and enumerated aiming to collect further information on any compound-induced effects on parasite fecundity and IVLE production.

[4] = system: adult S. japonicum male worms; assay: In vitro screening of S. japonicum adults at 100 nM (WormAssay motility, descriptors, severity score); type: cell-based, Schistosoma japonicum; parameters: key to DESCRIPTORS 48 h / DESCRIPTORS 72 h: Dark = dark; S = Slow; S-uncoord = uncoordinated slow movements; O-uncoord = uncoordinated fast movements; On sides = male worms are not adhering to dish with ventral sucker; Shrunk = worms are not flexing and are smaller than usual; Teg damage = outer surface (tegument of the worm) is damaged; Deg= degenerating; D = Dead
Method: For each species, parasite recovery involved reverse perfusion of the hepatic portal and mesenteric system using DMEM (Fisher Scientific). Parasites were washed six times with Basch 169 medium supplemented with 100 U/ml penicillin and 100 μg/ml streptomycin before manually distributing approximately 5 males per well (on occasion 1 or 2 females might also be present) of a 24-well plate (Corning Costar 3524). […] The next morning, a final concentration of 100 nM compound (in 1 μL DMSO) was added to each well and the final volume made up to 2 ml with Basch 169 medium supplemented with antibiotics and FBS. Each compound was tested in triplicate (except for some instances tested in duplicate). […] The phenotypic characterisation of compound effects focused on male worms due to the greater range of their motility characteristics that include flexing, bending, stretching, sucker walking and adherence, compared to the more sedentary female worms. In addition to descriptors, WormAssay, as adapted for the schistosome, was used to measure average worm motility per well [72, 73].

[5] = 72 h, Table 2, average of phenotype and motility EC50, 72 h, read-out: Activity on schistosomula (EC50, μM - 72 h) Average
[6] = 72 h, Table 2, motility, 72 h, three replicate titrations (0.313–10 μM), read-out: Activity on schistosomula (EC50, μM - 72 h) M
[7] = 72 h, Table 2, phenotype, 72 h, three replicate titrations (0.313–10 μM), read-out: Activity on schistosomula (EC50, μM - 72 h) P
[8] = 72 h, read-out: EC50 on schistosomula (bounds and ranges given)
[9] = Table 5, Series C, read-out: Anti-schistosomal activity EC50 Adult (nM) Motility
[10] = Table 2, 72 h, titrations 0.0095–5 μM, WormassayGP2, read-out: Activity on adult worms (EC50, μM - 72 h) Motility
[11] = Table 5, Series C, read-out: Anti-schistosomal activity EC50 Schistosomula (μM) Motility
[12] = Table 5, Series C, read-out: Anti-schistosomal activity EC50 Schistosomula (μM) Phenotype

Row | Compound | Toxicity on HepG2 in words [1] | EC50 [2, 5] | EC50 [2, 6] | EC50 [2, 7] | EC50 [2, 8] | EC50 [3, 9] | EC50 [3, 10] | Selectivity Index (SI) Adult worms [1] | Selectivity Index (SI) Somula [1] | EC50 [2, 11] | EC50 [2, 12] | also measured
1 | Nc1ccc2nc(Nc3ccc(Cl)c(Cl)c3)c(Nc3ccc(Cl)c(Cl)c3)nc2c1 [Compound 22a, N^2, N^3-bis(3,4-dichlorophenyl)quinoxaline-2,3,6-triamine] | low toxicity | 3.38 µM | 3.25 µM | 3.51 µM | > 2 µM |  |  |  |  |  |  | 
2 | CC(=O)Nc1ccc2nc(Nc3ccc(Cl)c(Cl)c3)c(Nc3ccc(Cl)c(Cl)c3)nc2c1 [Compound 22c, N-(2,3-bis((3,4-dichlorophenyl)amino)quinoxalin-6-yl)acetamide] |  | 2.91 µM | 2.79 µM | 3.04 µM | > 2 µM | 704 nM | 704 nM | 6.52 | 1.57 | 2.79 µM | 3.04 µM | 
3 | CCCCCC(=O)Nc1ccc2nc(Nc3ccc(Cl)c(Cl)c3)c(Nc3ccc(Cl)c(Cl)c3)nc2c1 [Compound 22d, N-(2,3-bis((3,4-dichlorophenyl)amino)quinoxalin-6-yl)hexanamide] | low toxicity | 1.41 µM | 1.8 µM | 1.02 µM |  | 318 nM | 318 nM | 7.65 | 1.72 | 1.8 µM | 1.02 µM | 
4 | O=C(Nc1ccc2nc(Nc3ccc(Cl)c(Cl)c3)c(Nc3ccc(Cl)c(Cl)c3)nc2c1)c1ccco1 [Compound 22f, N-(2,3-bis((3,4-dichlorophenyl)amino)quinoxalin-6-yl)furan-2-carboxamide] |  | 1.95 µM | 2 µM | 1.91 µM |  |  |  |  | 2.91 | 2 µM | 1.91 µM | 
5 | O=[N+]([O-])c1ccc2nc(Nc3ccc(Cl)cc3)c(Nc3ccc(Cl)cc3)nc2c1 [Compound 26, N^2, N^3-bis(4-chlorophenyl)-6-nitroquinoxaline-2,3-diamine] |  | 0.41 µM | 0.39 µM | 0.42 µM |  |  | 20.3 nM |  |  |  |  | EC50 ([3]; Table 4, Series A, read-out: Anti-schistosomal activity EC50 Adult (nM) Motility): 20.3 nM; Effect on S. japonicum adult male worms ([4]; 5, 24, 48 and 72 h): decreased motility starting at 48 h; SEVERITY SCORES 5 h ([4]; S. japonicum, 5 h, max = 4, one line per replicate): 0; SEVERITY SCORES 24 h ([4]; S. japonicum, 24 h, max = 4, one line per replicate): 0; SEVERITY SCORES 48 h ([4]; S. japonicum, 48 h, max = 4, one line per replicate): 1; DESCRIPTORS 48 h ([4]; S. japonicum, 48 h, one line per replicate): S; SEVERITY SCORES 72 h ([4]; S. japonicum, 72 h, max = 4, one line per replicate): 2 and 1; DESCRIPTORS 72 h ([4]; S. japonicum, 72 h, one line per replicate): S, on sides and S; EC50 ([2]; Table 4, Series A, read-out: Anti-schistosomal activity EC50 Schistosomula (μM) Motility): 0.39 µM; EC50 ([2]; Table 4, Series A, read-out: Anti-schistosomal activity EC50 Schistosomula (μM) Phenotype): 0.42 µM
